Experimental data as given in paper PMC11847258, “Phase I trial of the combination of the pan-ErbB inhibitor neratinib and mTOR inhibitor everolimus in advanced cancer patients with ErbB family gene alterations” (ESMO Open, 2025).
Read-outs that look alike come from different tables or passages of the source.

Legend:
[1] = Plasma pharmacokinetics on cycle 1, day 15 (LC/MS, noncompartmental analysis); type: in vivo, human; settings: for AUC(0-t): read-out: AUC0-24; for clearance: read-out: CLss (converted); for concentration at 24 h: read-out: Ctau or C24
Method: Pharmacokinetic (PK) analysis was conducted on cycle 1, day 15 for both everolimus and neratinib with blood samples collected at pre-dose, 1, 3, 4, 6, 8, and 24 hours post-dose. Following good clinical and laboratory practices, blood was collected into K2-EDTA vacutainers, gently inverted and mixed, then centrifuged at 3000 rpm (1500 g) for 10 min at 4°C. The resultant plasma was placed into cryovials and frozen at −70°C until analysis.

[2] = cited from earlier work
[3] = cited from earlier work; remark: listed apart in the source
[4] = Dose Level 2: neratinib 200mg/day + everolimus 5mg/day, n=3, Cycle 1, Day 15, mean (range)
[5] = Dose Level 4: neratinib 240mg/day + everolimus 7.5mg/day, n=5, Cycle 1, Day 15, mean (range)
[6] = human, plasma, oral, Dose Level 2: neratinib 200mg/day + everolimus 5mg/day, n=3, Cycle 1, Day 15, mean (range)
[7] = human, plasma, oral, Dose Level 2: neratinib 200mg/day + everolimus 5mg/day, n=3, Cycle 1, Day 15, mean (range), read-out: Tmax
[8] = human, plasma, oral, Dose Level 4: neratinib 240mg/day + everolimus 7.5mg/day, n=5, Cycle 1, Day 15, mean (range)
[9] = monotherapy 5mg, N=4, ref O’Donnell et.al.
[10] = monotherapy 10mg, N=33, ref O’Donnell et.al.
[11] = monotherapy 10mg, N=33, ref O’Donnell et.al., listed as everolimus
[12] = monotherapy 240mg, N=3, ref Wong et.al.
[13] = monotherapy 240mg, N=3, ref Wong et.al., listed as neratinib

Structure (SMILES): CO[C@H]1C[C@@H]2CC[C@@H](C)[C@@](O)(O2)C(=O)C(=O)N2CCCC[C@H]2C(=O)O[C@H]([C@H](C)C[C@@H]2CC[C@@H](OCCO)[C@H](OC)C2)CC(=O)[C@H](C)/C=C(\C)[C@@H](O)[C@@H](OC)C(=O)[C@H](C)C[C@H](C)/C=C/C=C/C=C/1C [Everolimus, everolimus]
- AR (accumulation ratio) [1, 4]: 1.2 (1.1-1.3)
- Ctau or C24 [1, 4]: 0.42 (0-1.1) ng/mL
- AR (accumulation ratio) [1, 5]: 1.7 (1-2.6)
- Ctau or C24 [1, 5]: 2.8 (0-9.9) ng/mL
- Tmax [1, 5]: 4.8 h
- AUC(0-inf) [1, 6]: 53.8 ng·h/mL
- Cmax [1, 6]: 3.58 ng/mL
- half-life [1, 6]: 8.2 h
- AUC(0-t) [1, 6]: 24.3 ng·h/mL
- clearance [1, 6]: 3370 mL/min
- concentration at 24 h [1, 6]: 0.42 ng/mL
- Tmax [1, 7]: 4.33 h
- AUC(0-inf) [1, 8]: 253 ng·h/mL
- Cmax [1, 8]: 8.5 ng/mL
- half-life [1, 8]: 16.8 h
- AUC(0-t) [1, 8]: 116 ng·h/mL
- clearance [1, 8]: 2300 mL/min
- concentration at 24 h [1, 8]: 2.8 ng/mL
- Tmax ([1]; human, plasma, oral, both groups (DL 2 and DL 4), with neratinib, read-out: mean Tmax): > 4 h
- TRAE all grades: Anemia [2, 9]: 1 (25)
- TRAE all grades: Anorexia [2, 9]: 1 (25)
- TRAE all grades: Constipation [2, 9]: 1 (25)
- TRAE all grades: Mucositis [2, 9]: 2 (50)
- TRAE all grades: Nausea [2, 9]: 1 (25)
- TRAE all grades: Pruritus [2, 9]: 1 (25)
- TRAE all grades: Rash [2, 9]: 2 (50)
- Grade ≥ 3 treatment-related: Anorexia [2, 10]: 2 (6.1)
- Grade ≥ 3 treatment-related: Dyspnea [2, 10]: 1 (3)
- Grade ≥ 3 treatment-related: Epistaxis [2, 10]: 1 (3)
- Grade ≥ 3 treatment-related: GI hemorrhage [2, 10]: 1 (3)
- Grade ≥ 3 treatment-related: Hyperglycemia [2, 10]: 2 (6.1)
- Grade ≥ 3 treatment-related: Hypertriglyceridemia [2, 10]: 1 (3)
- Grade ≥ 3 treatment-related: Mucositis [2, 10]: 2 (6.1)
- Grade ≥ 3 treatment-related: Nausea [2, 10]: 1 (3)
- Grade ≥ 3 treatment-related: Pneumonia [2, 10]: 1 (3)
- Grade ≥ 3 treatment-related: Rash [2, 10]: 1 (3)
- Grade ≥ 3 treatment-related: Thrombocytopenia [2, 10]: 2 (6.1)
- TRAE all grades: Anorexia [2, 10]: 11 (33.3)
- TRAE all grades: Constipation [2, 10]: 7 (21.2)
- TRAE all grades: Diarrhea [2, 10]: 7 (21.2)
- TRAE all grades: Fatigue [2, 10]: 12 (36.4)
- TRAE all grades: Headache [2, 10]: 7 (21.2)
- TRAE all grades: Mucositis [2, 10]: 17 (51.5)
- TRAE all grades: Nausea [2, 10]: 14 (42.4)
- TRAE all grades: Rash [2, 10]: 20 (60.6)
- TRAE all grades: Vomiting [2, 10]: 5 (15.2)
- TRAE all grades: Mucositis [2, 11]: 51.5
- TRAE all grades: Nausea [2, 11]: 42.4
- TRAE all grades: Rash [2, 11]: 60.6
- Tmax ([2]; single agent): 1 to 2 h
- dose with acceptable tolerability suggested by PK analysis (MTD undetermined) ([2]; single agent): 10 mg/day

Structure (SMILES): CCOc1cc2ncc(C#N)c(Nc3ccc(OCc4ccccn4)c(Cl)c3)c2cc1NC(=O)/C=C/CN(C)C [Neratinib, neratinib]
- TRAE all grades: Anorexia [3, 12]: 2 (67)
- TRAE all grades: Diarrhea [3, 12]: 3 (100)
- TRAE all grades: Fatigue [3, 12]: 2 (67)
- TRAE all grades: Nausea [3, 12]: 2 (67)
- TRAE all grades: Rash [3, 12]: 1 (33)
- TRAE all grades: Vomiting [3, 12]: 1 (33)
- TRAE all grades: Anorexia [3, 13]: 67
- TRAE all grades: Diarrhea [3, 13]: 100
- TRAE all grades: Fatigue [3, 13]: 67
- TRAE all grades: Nausea [3, 13]: 67
- MTD ([3]; monotherapy): 320 mg
- AR (accumulation ratio) [1, 4]: 1.41(1.2-1.9)
- AUC0-∞ [1, 4]: 910 (195-2125) ng*h/mL
- Ctau or C24 [1, 4]: 13.6 (2.6-31.8) ng/mL
- AR (accumulation ratio) [1, 5]: 2.29 (1.4-3.8)
- Ctau or C24 [1, 5]: 44 (14.5-125) ng/mL
- Cmax [1, 6]: 35.8 ng/mL
- half-life [1, 6]: 13.1 h
- AUC(0-t) [1, 6]: 400 ng·h/mL
- clearance [1, 6]: 9970 mL/min
- concentration at 24 h [1, 6]: 13.6 ng/mL
- Tmax [1, 7]: 4.8 h
- AUC(0-inf) [1, 8]: 3930 ng·h/mL
- Cmax [1, 8]: 83.4 ng/mL
- half-life [1, 8]: 28.6 h
- AUC(0-t) [1, 8]: 1170 ng·h/mL
- clearance [1, 8]: 4820 mL/min
- concentration at 24 h [1, 8]: 44 ng/mL
- Tmax ([1]; human, plasma, oral, Dose Level 4: neratinib 240mg/day + everolimus 7.5mg/day, n=5, Cycle 1, Day 15, mean (range), read-out: Tmax): 4.2 h
